The values that follow come from patent US9051325B2, “Bicyclic [5,6] imidazo pyrimodone compounds for use in the treatment of diseases or conditions mediated by Lp-PLA2” (GlaxoSmithKline Intellectual Property Development Limited, priority 2013, dated 2015).

The target in one assay is T1, Lp-PLA2 in human plasma (Homo sapiens, UniProt Q13093).
T1 construct: from tissue; host or cells: pooled human plasma
T1 sequence (Q13093 22-441): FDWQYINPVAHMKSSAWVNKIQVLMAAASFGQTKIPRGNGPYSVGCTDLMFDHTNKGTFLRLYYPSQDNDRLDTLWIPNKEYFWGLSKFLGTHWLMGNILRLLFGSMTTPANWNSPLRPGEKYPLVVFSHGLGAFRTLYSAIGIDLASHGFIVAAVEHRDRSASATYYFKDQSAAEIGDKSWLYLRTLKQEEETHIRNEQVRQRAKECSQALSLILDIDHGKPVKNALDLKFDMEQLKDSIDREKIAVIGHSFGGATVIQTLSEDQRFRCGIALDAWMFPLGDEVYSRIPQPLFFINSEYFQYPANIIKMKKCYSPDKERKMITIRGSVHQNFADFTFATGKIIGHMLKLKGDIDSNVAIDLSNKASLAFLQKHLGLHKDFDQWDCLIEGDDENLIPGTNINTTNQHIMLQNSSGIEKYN
The experiment in a line: Lp-PLA2 human plasma assay (Thio-PAF assay). The class given is biochemical. The following applies: pooled human plasma; lower bounds; read-out: pIC50 values in the thio-PAF assay (converted). In a few lines: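 Pooled human plasma preincubated 30 min with compounds, then given 2-thio-PAF substrate with CPM and NEM in 50 mM HEPES pH 7.4, 150 mM NaCl, 1 mM CHAPS. Reaction quenched after 2 min with TFA and read by fluorescence (ex 380/em 485) after 40 min at room temperature; pIC50 from curve fit.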

The target of assay [1] is T2, recombinant human Lp-PLA2 (Homo sapiens, UniProt Q13093).
T2 sequence (Q13093 22-441): T1 sequence (Q13093 22-441)
In words: Recombinant human Lp-PLA2 assay (rhLp-PLA2, PED6 assay). The class given is biochemical. The essentials:
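Compounds were preincubated 30 min with 4 nM […] rhLp-PLA2 in 50 mM HEPES pH 7.4, 150 mM NaCl, 1 mM CHAPS, then PED6 substrate […] was added for 20 min at room temperature in the dark. Fluorescence was read at ex 480/em 540, and pIC50 was fitted from 1:3 serial dilutions.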

The mark [2] stands for this setting: lower bounds, read-out: pIC50 values in the PED6 assay (converted).
The mark [3] stands for this setting: read-out: rhLp-PLA2 (PED6 assay) (pIC50) (converted).

SMILES strings stand for the structures. Where two headings read alike, the source gives them in different places.

For `CC1(C)Cn2c(cc(OCc3ccc(Oc4ccc(C(F)(F)F)nc4)c(F)c3)nc2=O)N1` [Example E37, 7-((3-fluoro-4-((6-(trifluoromethyl)pyridin-3-yl)oxy)benzyl)oxy)-2,2-dimethyl-2,3-dihydroimidazo[1,2-c]pyrimidin-5(1H)-one], the IC50 at Lp-PLA2 in human plasma was ≤ 100 nM; in assay [1] (setting [2]), ≤ 1 nM.

For `CC1(C)Cn2c(cc(OCc3ccc(Oc4ccnc(C(F)(F)F)c4)c(F)c3)nc2=O)N1` [Example E38, 7-((3-fluoro-4-((2-(trifluoromethyl)pyridin-4-yl)oxy)benzyl)oxy)-2,2-dimethyl-2,3-dihydroimidazo[1,2-c]pyrimidin-5(1H)-one], the IC50 on Lp-PLA2 in human plasma was ≤ 100 nM; in assay [1] (setting [2]), ≤ 1 nM.

Consider `CC1(C)Cn2c(cc(OCc3cc(F)c(Oc4ccc(C(F)(F)F)nc4)c(F)c3)nc2=O)N1` [Example E39, 7-((3,5-difluoro-4-((6-(trifluoromethyl)pyridin-3-yl)oxy)benzyl)oxy)-2,2-dimethyl-2,3-dihydroimidazo[1,2-c]pyrimidin-5(1H)-one], for which the values for the IC50 (on Lp-PLA2 in human plasma; in assay [1] (setting [2])) were ≤ 100 nM and ≤ 1 nM, respectively.

In the case of `C[C@H]1Cn2c(cc(OCc3ccc(Oc4cnc(C(F)(F)F)nc4)c(F)c3)nc2=O)N1C` [Example E40, (S)-7-((3-fluoro-4-((2-(trifluoromethyl)pyrimidin-5-yl)oxy)benzyl)oxy)-1,2-dimethyl 2,3-dihydroimidazo[1,2-c]pyrimidin-5(1H)-one], the IC50 at Lp-PLA2 in human plasma is ≤ 100 nM; in assay [1] (setting [2]) it was ≤ 10 nM.

Take `CC1(C)Cn2c(cc(OCc3ccc(Oc4cncc(C(F)(F)F)c4)c(F)c3)nc2=O)N1` [Example E41, 7-((3-fluoro-4-((5-(trifluoromethyl)pyridin-3-yl)oxy)benzyl)oxy)-2,2-dimethyl-2,3-dihydroimidazo[1,2-c]pyrimidin-5(1H)-one]: the figures for the IC50 (on Lp-PLA2 in human plasma; in assay [1] (setting [2])) were ≤ 100 nM and ≤ 1 nM, respectively.

For `CN1c2cc(OCc3ccc(F)c(C#N)c3)nc(=O)n2CC1(C)C` [Example E42, 2-fluoro-5-(((1,2,2-trimethyl-5-oxo-1,2,3,5-tetrahydroimidazo[1,2-c]pyrimidin-7-yl)oxy)methyl)benzonitrile], the IC50 on Lp-PLA2 in human plasma was ≤ 100 nM; in assay [1] (setting [2]), ≤ 1 nM; in assay [1] (setting [3]), 0.316 nM.

Turning to `CN1c2cc(OCc3ccc(Oc4cnc(C(F)(F)F)nc4)c(F)c3)nc(=O)n2CC1(C)C` [Example E43, 7-((3-fluoro-4-((2-(trifluoromethyl)pyrimidin-5-yl)oxy)benzyl)oxy)-1,2,2-trimethyl-2,3-dihydroimidazo[1,2-c]pyrimidin-5(1H)-one], the results for the IC50 (on Lp-PLA2 in human plasma; in assay [1] (setting [2]); in assay [1] (setting [3])) were ≤ 100 nM, ≤ 1 nM and 0.0501 nM, respectively.

Regarding `CC1(C)Cn2c(cc(OCc3ccc(Oc4ccc(Cl)nc4)c(F)c3)nc2=O)N1` [Example E44, 7-((4-((6-chloropyridin-3-yl)oxy)-3-fluorobenzyl)oxy)-2,2-dimethyl-2,3-dihydroimidazo[1,2-c]pyrimidin-5(1H)-one], the IC50 is ≤ 100 nM at Lp-PLA2 in human plasma and ≤ 1 nM in assay [1] (setting [2]).

In the case of `CC1(C)Cn2c(cc(OCc3cc(F)c(Oc4ccnc(Cl)c4)c(F)c3)nc2=O)N1` [Example E45, 7-((4-((2-chloropyridin-4-yl)oxy)-3,5-difluorobenzyl)oxy)-2,2-dimethyl-2,3-dihydroimidazo[1,2-c]pyrimidin-5(1H)-one], the IC50 is ≤ 100 nM at Lp-PLA2 in human plasma and ≤ 1 nM in assay [1] (setting [2]).

As to `CC(C)N1c2cc(OCc3cccc(F)c3F)nc(=O)n2CC1(C)C` [Example E46, 7-((2,3-difluorobenzyl)oxy)-1-isopropyl-2,2-dimethyl-2,3-dihydroimidazo[1,2-c]pyrimidin5(1H)-one], the IC50 at Lp-PLA2 in human plasma was ≤ 100 nM; in assay [1] (setting [2]), ≤ 10 nM; in assay [1] (setting [3]) it was 3.98 nM.

Consider `C[C@@H]1Cn2c(cc(OCc3cc(F)c(F)c(F)c3)nc2=O)N1C` [Example E48, (R)-1,2-dimethyl-7-((3,4,5-trifluorobenzyl)oxy)-2,3-dihydroimidazo[1,2-c]pyrimidin-5(1H)-one], for which the IC50 at Lp-PLA2 in human plasma was ≤ 100 nM; in assay [1] (setting [2]), ≤ 10 nM.

With `C[C@H]1Cn2c(cc(OCc3cc(F)c(F)c(F)c3)nc2=O)N1` [Example E49, (S)-2-methyl-7-((3,4,5-trifluorobenzyl)oxy)-2,3-dihydroimidazo[1,2-c]pyrimidin-5(1H)-one], the IC50 on Lp-PLA2 in human plasma was ≤ 100 nM; in assay [1] (setting [2]), ≤ 10 nM.

As for `CC1(C)Cn2c(cc(OCc3cc(F)c(F)c(F)c3)nc2=O)N1` [Example E50, 2,2-dimethyl-7-((3,4,5-trifluorobenzyl)oxy)-2,3-dihydroimidazo[1,2-c]pyrimidin-5(1H)-one], the IC50 at Lp-PLA2 in human plasma was ≤ 100 nM; in assay [1] (setting [2]), ≤ 1 nM.

As to `C[C@@H]1Cn2c(cc(OCc3ccc(Oc4ccnc(C(F)(F)F)c4)c(F)c3)nc2=O)N1C` [Example E51, (R)-7-((3-fluoro-4-((2-(trifluoromethyl)pyridin-4-yl)oxy)benzyl)oxy)-1,2-dimethyl-2,3-dihydroimidazo[1,2-c]pyrimidin-5(1H)-one], the IC50 at Lp-PLA2 in human plasma was ≤ 100 nM; in assay [1] (setting [2]) it was ≤ 1 nM.

`C[C@@H]1Cn2c(cc(OCc3ccc(F)c(C#N)c3)nc2=O)N1C` [Example E53, (R)-5-(((1,2-dimethyl-5-oxo-1,2,3,5-tetrahydroimidazo[1,2-c]pyrimidin-7-yl)oxy)methyl)-2-fluorobenzonitrile]: the IC50 at Lp-PLA2 in human plasma was ≤ 100 nM; in assay [1] (setting [2]), ≤ 10 nM.

As for `C[C@H]1Cn2c(cc(OCc3ccc(Oc4cncc(C(F)(F)F)c4)c(F)c3)nc2=O)N1C` [Example E54, (S)-7-((3-fluoro-4-((5-(trifluoromethyl)pyridin-3-yl)oxy)benzyl)oxy)-1,2-dimethyl-2,3-dihydroimidazo[1,2-c]pyrimidin-5(1H)-one], the IC50 on Lp-PLA2 in human plasma was ≤ 100 nM; in assay [1] (setting [2]), ≤ 1 nM; in assay [1] (setting [3]), 0.126 nM.

As to `C[C@H]1Cn2c(cc(OCc3ccc(Oc4cncc(C(F)(F)F)c4)c(C#N)c3)nc2=O)N1C` [Example E55, (S)-5-(((1,2-dimethyl-5-oxo-1,2,3,5-tetrahydroimidazo[1,2-c]pyrimidin-7-yl)oxy)methyl)-2-((5-(trifluoromethyl)pyridin-3-yl)oxy)benzonitrile], the IC50 is ≤ 100 nM on Lp-PLA2 in human plasma and ≤ 1 nM in assay [1] (setting [2]).

Regarding `C[C@H]1Cn2c(cc(OCc3cc(F)c(Oc4cncc(C(F)(F)F)c4)c(F)c3)nc2=O)N1C` [Example E56, (S)-7-((3,5-difluoro-4-((5-(trifluoromethyl)pyridin-3-yl)oxy)benzyl)oxy)-1,2-dimethyl-2,3-dihydroimidazo[1,2-c]pyrimidin-5(1H)-one], the IC50 at Lp-PLA2 in human plasma was ≤ 100 nM; in assay [1] (setting [2]), ≤ 1 nM; in assay [1] (setting [3]) it was 0.1 nM.

On to `C[C@H]1Cn2c(cc(OCc3cc(F)c(Oc4ccnc(C(F)(F)F)c4)c(F)c3)nc2=O)N1C` [Example E58, (S)-7-((3,5-difluoro-4-((2-(trifluoromethyl)pyridin-4-yl)oxy)benzyl)oxy)-1,2-dimethyl-2,3-dihydroimidazo[1,2-c]pyrimidin-5(1H)-one], for which the IC50 at Lp-PLA2 in human plasma was ≤ 100 nM; in assay [1] (setting [2]), ≤ 1 nM; in assay [1] (setting [3]) it was 0.0631 nM.

In the case of `CN1c2cc(OCc3ccc(Oc4ccnc(C(F)(F)F)c4)c(F)c3)nc(=O)n2CC1(C)C` [Example E59, 7-((3-fluoro-4-((2-(trifluoromethyl)pyridin-4-yl)oxy)benzyl)oxy)-1,2,2-trimethyl-2,3-dihydroimidazo[1,2-c]pyrimidin-5(1H)-one], the results for the IC50 (at Lp-PLA2 in human plasma; in assay [1] (setting [2]); in assay [1] (setting [3])) were ≤ 100 nM, ≤ 1 nM and 0.0398 nM, respectively.

As for `CN1c2cc(OCc3cc(F)c(Oc4ccc(C(F)(F)F)nc4)c(F)c3)nc(=O)n2CC1(C)C` [Example E60, 7-((3,5-difluoro-4-((6-(trifluoromethyl)pyridin-3-yl)oxy)benzyl)oxy)-1,2,2-trimethyl-2,3-dihydroimidazo[1,2-c]pyrimidin-5(1H)-one], the results for the IC50 (at Lp-PLA2 in human plasma; in assay [1] (setting [2]); in assay [1] (setting [3])) were ≤ 100 nM, ≤ 1 nM and 0.0398 nM, respectively.

For `CN1c2cc(OCc3cc(F)c(Oc4cncc(C(F)(F)F)c4)c(F)c3)nc(=O)n2CC1(C)C` [Example E61, 7-((3,5-difluoro-4-((5-(trifluoromethyl)pyridin-3-yl)oxy)benzyl)oxy)-1,2,2-trimethyl-2,3-dihydroimidazo[1,2-c]pyrimidin-5(1H)-one], the IC50 on Lp-PLA2 in human plasma was ≤ 100 nM; in assay [1] (setting [2]) it was ≤ 1 nM; in assay [1] (setting [3]), 0.126 nM.

`CN1c2cc(OCc3ccc(Oc4cncc(Cl)c4)c(F)c3)nc(=O)n2CC1(C)C` [Example E63, 7-((4-((5-chloropyridin-3-yl)oxy)-3-fluorobenzyl)oxy)-1,2,2-trimethyl-2,3-dihydroimidazo[1,2-c]pyrimidin-5(1H)-one]: the IC50 is ≤ 100 nM at Lp-PLA2 in human plasma, ≤ 1 nM in assay [1] (setting [2]) and 0.1 nM in assay [1] (setting [3]).
